This note sets out measurements from publication PMC8281026, “Peptide Based Inhibitors of Protein Binding to the Mitogen-Activated Protein Kinase Docking Groove” (Frontiers in Molecular Biosciences, 2021).

In one experiment the target is T1, ERK2 (Homo sapiens, UniProt P28482).
T1 construct: made in house; host or cells: Escherichia coli
Description: Fluorescence polarization competitive binding assay, ERK2. The conditions noted are these: for Kd: competitive FP titration against 50 nM Cf-RHDF (gives Ki, used as proxy of Kd), 20 mM Tris pH 8.0, 100 mM NaCl, 0.05% Brij35, 2 mM TCEP, at least 3 independent measurements, read-out: Kd (µM) ± sd, ERK2. As for the experimental part:
(§1) ERK2 and p38 proteins used for fluorescence polarization (FP) measurements were recombinantly expressed in Escherichia coli and purified according to Garai et al. The purified and concentrated proteins were subjected to fluorescence polarization based binding measurements ([Garai et al., 2012]) using 50 nM Cf-labeled Cf-RHDF (Cf-SLQRKKPPWLKLDIPSC) and the data was analyzed using OriginPro. For direct measurements the concentration of ERK2 and p38 protein was increased, and for competitive measurements the protein-labeled peptide complex at 60–80% complex formation was titrated with increasing concentration of unlabeled peptide and the amount of the protein-labeled peptide complex (fraction bound) was determined using Cytation 3 (BioTek Instruments) plate reader in 384-well black plates. The direct measurement gives the Kd between the labeled peptide and the MAPK, while the competitive titration experiment with the unlabeled peptide gives the Ki for the unlabeled peptide competing off the labeled peptide, which is a good proxy for the binding affinity of the unlabeled peptide to the protein. All of the FP measurements were performed in assay buffer: 20 mM Tris (pH 8.0), 100 mM NaCl, 0.05% Brij35, and 2 mM TCEP. Fraction bound of the labeled ligand was calculated based on direct binding and competitive binding equations described in ([Roehrl et al., 2004]; [Simon et al., 2020]). The Kd and Ki values were obtained by fitting the FP data, measured in triplicates, to a direct binding equation or to a competitive binding equation using the OriginPro software.

The next experiment addresses T2, p38α (Homo sapiens, UniProt Q16539).
T2 construct: made in house; host or cells: Escherichia coli
As to the kind of experiment: Fluorescence polarization competitive binding assay, p38. As to conditions: competitive FP titration against 50 nM Cf-RHDF (gives Ki, used as proxy of Kd); 20 mM Tris pH 8.0, 100 mM NaCl, 0.05% Brij35, 2 mM TCEP; at least 3 independent measurements; read-out: Kd (µM) ± sd, p38. On the procedure:
as §1

The test system of experiment [1] is HEK-293T cells. Description: Cellular uptake by fluorescence microscopy. The class given is cell-based. The conditions noted are these: for cellular uptake: data is not shown; for internalization into HEK-293T cells: fluorescence microscopy, serum-free medium, 37 °C, up to 3 h, Figure 1. On the procedure:
(§2) The cellular uptake of the fluorescent labeled peptide into HEK-293T cells were analyzed by fluorescence microscopy (Cytation 3, BioTek Instruments) and two peptides were further examined by confocal laser scanning microscopy (Zeiss LSM-710 system). Cells were incubated with peptides in serum-free medium (DMEM) for 3 h at 37 °C and then washed twice with 200 μl of serum-free medium before analyzing.

The next experiment has as its target p38 (pp-p38α) (Homo sapiens, UniProt Q16539). Description: In vitro MAPK activity assay (Nanobit luciferase protein fragment complementation), p38. The class given is biochemical. As to conditions: 1 nM pp-p38α, 2 mM ATP, 50 mM HEPES pH 7.5; initial rates, luminescence; at least 3 independent measurements. On the procedure:
(§3) In order to determine the inhibitory effect of RHDF-peptides, we used a protein fragment complementation based assay. […] Upon MAPK activity, these two proteins bind and form the active luciferase enzyme oxidizing its substrate (coelenterazine) and ultimately giving some luminescent signal. The initial rates of the reactions were calculated and were compared for the applied inhibitor’s concentration, and then EC50 values were determined using dose response fitting (OriginPro) (see in Supplementary Figure S26). Reactions were carried out in a buffer of 50 mM HEPES, pH 7.5, 100 mM NaCl, 5 mM MgCl2, 0.05% IGEPAL, 50 μM Coelenterazine h, 5% glycerol, 2 mM DTT, 1mM TCEP, 0.5 mg/ml BSA containing 1 nM active ERK2 (pp-ERK2) or p38 (pp-p38α) and were started by the addition of 2 mM ATP. Luminescence was measured using a luminescence plate reader (Cytation 3, BioTek) in white 96-well plates.

The target of another experiment is active ERK2 (pp-ERK2) (Homo sapiens, UniProt P28482). As to the kind of experiment: In vitro MAPK activity assay (Nanobit luciferase protein fragment complementation), ERK2. It is filed as biochemical. The conditions noted are these: for EC50: 1 nM pp-ERK2, 2 mM ATP, 50 mM HEPES pH 7.5, initial rates, luminescence, at least 3 independent measurements; for EC50 increase relative to peptide 8: ratio of EC50 values, compared with peptide 8. On the procedure:
as §3

In experiment [2] the test system is HEK-293T cells. As to the kind of experiment: Intracellular distribution by confocal laser scanning microscopy. It is filed as cell-based. As to conditions: 10 and 20 µM, 3 h. As for the experimental part: as §2

In general, Kd refers to a measure of binding affinity in units of concentration. By EC50 is commonly meant the concentration at which the effect is half-maximal.

*1 amine or outer side, *2 acyl side, *3 side chain or, on linkers, in order; H or OH if unused. Where a SMILES comes first, the peptide text is derived from it. Bridges are numbered along the chain shown (N, C = ends). The star is where a group is joined. Dabcyl = CN(C)c1ccc(N=Nc2ccc(C(=O)*)cc2)cc1; TBMB = c1c(C[*:1])cc(C[*:3])cc1C[*:2]; X1 = O=C(C[*:2])[*:1]

T1 sequence (P28482 whole entry, species assumed): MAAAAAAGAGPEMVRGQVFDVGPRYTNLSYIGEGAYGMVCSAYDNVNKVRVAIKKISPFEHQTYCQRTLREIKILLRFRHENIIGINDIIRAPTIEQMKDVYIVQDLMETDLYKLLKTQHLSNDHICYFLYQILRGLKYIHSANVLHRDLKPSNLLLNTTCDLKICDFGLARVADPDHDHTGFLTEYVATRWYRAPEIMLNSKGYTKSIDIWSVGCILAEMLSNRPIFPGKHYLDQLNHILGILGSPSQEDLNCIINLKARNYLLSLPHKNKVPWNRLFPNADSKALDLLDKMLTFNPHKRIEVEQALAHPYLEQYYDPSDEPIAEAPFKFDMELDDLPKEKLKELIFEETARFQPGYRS
Sequence of active ERK2 (pp-ERK2) (P28482 whole entry, the tested form may be a part): as the sequence (P28482 whole entry, species assumed) above
T2 sequence (Q16539 whole entry): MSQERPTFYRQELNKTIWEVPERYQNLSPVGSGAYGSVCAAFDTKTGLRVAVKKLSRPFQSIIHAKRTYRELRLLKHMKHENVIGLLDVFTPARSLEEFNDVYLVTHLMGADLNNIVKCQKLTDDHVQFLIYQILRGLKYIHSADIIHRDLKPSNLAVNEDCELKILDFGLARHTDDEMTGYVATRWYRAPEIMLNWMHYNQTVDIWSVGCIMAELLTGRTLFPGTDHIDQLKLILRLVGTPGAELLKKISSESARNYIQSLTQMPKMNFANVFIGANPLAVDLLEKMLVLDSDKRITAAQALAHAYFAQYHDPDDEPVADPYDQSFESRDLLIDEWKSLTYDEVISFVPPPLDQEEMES
Sequence of p38 (pp-p38α) (Q16539 whole entry, the tested form may be a part): as the sequence (Q16539 whole entry) above

Regarding `CC(C)C[C@@H]1NC(=O)[C@H](CCCNC(=N)N)NC(=O)[C@H](CC(C)C)NC(=O)[C@@H](NC(=O)[C@H](Cc2c[nH]c3ccccc23)NC(=O)[C@@H]2CCCN2C(=O)[C@@H]2CCCN2C(=O)[C@H](CCCNC(=N)N)NC(=O)[C@H](CCCNC(=N)N)NC(=O)[C@H](CCCNC(=N)N)NC(=O)c2ccc(N=Nc3ccc(N(C)C)cc3)cc2)CCCCNC(=O)CSC[C@@H](C(N)=O)NC(=O)[C@H](CCCNC(=N)N)NC(=O)[C@H](CCCNC(=N)N)NC(=O)[C@H](CC(=O)O)NC1=O` [compound 12] (Dabcyl-RRRPPWKLRLDRRC-NH2; linker 7-14 via X1), the figures for the Kd at ERK2 and at p38α were 4.1 ± 0.3 µM and 1.7 ± 0.4 µM, respectively.
On the same counts, the results for `CC(C)C[C@@H]1NC(=O)[C@H](CCCNC(=N)N)NC(=O)[C@H](CC(C)C)NC(=O)[C@@H]2CSCc3cc(cc(c3)CSC[C@H](NC(=O)[C@H](CCCNC(=N)N)NC(=O)[C@H](CCCNC(=N)N)NC(=O)[C@H](CCCNC(=N)N)NC(=O)c3ccc(N=Nc4ccc(N(C)C)cc4)cc3)C(=O)N3CCC[C@H]3C(=O)N3CCC[C@H]3C(=O)N[C@@H](Cc3c[nH]c4ccccc34)C(=O)N2)CSC[C@@H](C(N)=O)NC(=O)[C@H](CCCNC(=N)N)NC(=O)[C@H](CCCNC(=N)N)NC(=O)[C@H](CC(=O)O)NC1=O` [compound 17] (Dabcyl-RRRCPPWCLRLDRRC-NH2; linker 4-8-15 via TBMB) are 4.5 ± 0.6 µM and 3.2 ± 0.7 µM.
On the same counts, the results for `CC[C@H](C)[C@@H]1NC(=O)[C@H](CC(=O)O)NC(=O)[C@H](CC(C)C)NC(=O)[C@H](CCCNC(=N)N)NC(=O)[C@H](CC(C)C)NC(=O)[C@H](Cc2c[nH]c3ccccc23)NC(=O)[C@@H]2CCCN2C(=O)[C@@H]2CCCN2C(=O)[C@@H](NC(=O)[C@H](CCCNC(=N)N)NC(=O)[C@H](CCCNC(=N)N)NC(=O)[C@H](CCCNC(=N)N)NC(=O)c2ccc(N=Nc3ccc(N(C)C)cc3)cc2)CCCCNC(=O)CSC[C@@H](C(N)=O)NC(=O)[C@H](CCCNC(=N)N)NC(=O)[C@H](CCCNC(=N)N)NC1=O` [compound 15] (Dabcyl-RRRKPPWLRLDIRRC-NH2; linker 4-15 via X1) are 1.5 ± 0.3 µM and 1.2 ± 0.6 µM.
As to `CC[C@H](C)[C@@H]1NC(=O)[C@H](CC(=O)O)NC(=O)[C@H](CC(C)C)NC(=O)[C@H](CCCNC(=N)N)NC(=O)[C@H](CC(C)C)NC(=O)[C@@H]2CSCc3cc(cc(c3)CSC[C@H](NC(=O)[C@H](CCCNC(=N)N)NC(=O)[C@H](CCCNC(=N)N)NC(=O)[C@H](CCCNC(=N)N)NC(=O)c3ccc(N=Nc4ccc(N(C)C)cc4)cc3)C(=O)N3CCC[C@H]3C(=O)N3CCC[C@H]3C(=O)N[C@@H](Cc3c[nH]c4ccccc34)C(=O)N2)CSC[C@@H](C(N)=O)NC(=O)[C@H](CCCNC(=N)N)NC(=O)[C@H](CCCNC(=N)N)NC1=O` [compound 16] (Dabcyl-RRRCPPWCLRLDIRRC-NH2; linker 4-8-16 via TBMB), the Kd was 0.9 ± 0.2 µM at ERK2 and 1.4 ± 0.4 µM at p38α.
As to `CC[C@H](C)[C@H](NC(=O)[C@H](CC(=O)O)NC(=O)[C@H](CC(C)C)NC(=O)[C@H](CCCCN)NC(=O)[C@H](CC(C)C)NC(=O)[C@H](Cc1c[nH]c2ccccc12)NC(=O)[C@@H]1CCCN1C(=O)[C@@H]1CCCN1C(=O)[C@H](CCCCN)NC(=O)[C@H](CCCCN)NC(=O)[C@H](CCCNC(=N)N)NC(=O)[C@H](CCC(N)=O)NC(=O)[C@H](CC(C)C)NC(=O)[C@@H](N)CO)C(=O)N1CCC[C@H]1C(=O)N[C@@H](CO)C(=O)N[C@@H](CS)C(N)=O` [compound 1, H-SLQRKKPPWLKLDIPSC-NH 2], the cellular uptake result with HEK-293T cells [1] is recorded as “poor”.
“H-RRPPWLRLDIRR-NH2 [compound 6, H-RRPPWLRLDIRR-NH 2]”: the EC50 on p38 (pp-p38α) is 3.7 µM; on active ERK2 (pp-ERK2) it was 12.9 µM. Moreover, on ERK2 (ERK2 Kd, compared with peptide 5), the “binding enhancement by extension of the C-terminus by two Arg” value is 3.5 times. Moreover, on active ERK2 (pp-ERK2), the “EC50 increase relative to peptide 8” value was found to be 3.7 times.
Consider Cf- RRRPPWLRLDIRR-NH 2 [compound 9], for which the intracellular distribution entry with HEK-293T cells [2] is reported as “punctuated”. Further, the “internalization into HEK-293T cells” value with HEK-293T cells [1] is “time and concentration dependent internalization”.
Take `CC[C@H](C)[C@H](NC(=O)[C@H](CC(=O)O)NC(=O)[C@H](CC(C)C)NC(=O)[C@H](CCCNC(=N)N)NC(=O)[C@H](CC(C)C)NC(=O)[C@H](Cc1c[nH]c2ccccc12)NC(=O)[C@@H]1CCCN1C(=O)[C@@H]1CCCN1C(=O)[C@H](CCCNC(=N)N)NC(=O)[C@H](CCCNC(=N)N)NC(=O)[C@H](CCCNC(=N)N)NC(=O)c1ccc(/N=N/c2ccc(N(C)C)cc2)cc1)C(=O)N[C@@H](CCCNC(=N)N)C(=O)N[C@@H](CCCNC(=N)N)C(=O)N[C@@H](CCCCN)C(N)=O` [compound 10, Dabcyl-RRRPPWLRLDIRRK-NH 2]: at active ERK2 (pp-ERK2), the “EC50 increase relative to peptide 8” value worked out at 2.4 times.
Take `CC(C)C[C@@H]1NC(=O)[C@H](CCCNC(=N)N)NC(=O)[C@H](CC(C)C)NC(=O)[C@H](Cc2c[nH]c3ccccc23)NC(=O)[C@@H]2CCCN2C(=O)[C@@H]2CCCN2C(=O)[C@@H](NC(=O)[C@H](CCCNC(=N)N)NC(=O)[C@H](CCCNC(=N)N)NC(=O)[C@H](CCCNC(=N)N)NC(=O)c2ccc(N=Nc3ccc(N(C)C)cc3)cc2)CCCCNC(=O)CSC[C@@H](C(N)=O)NC(=O)[C@H](CCCNC(=N)N)NC(=O)[C@H](CCCNC(=N)N)NC(=O)[C@H](CC(=O)O)NC1=O` [compound 13] (Dabcyl-RRRKPPWLRLDRRC-NH2; linker 4-14 via X1): the dissociation constant (Kd) came out at 1 ± 0.2 µM on ERK2 and 1 ± 0.7 µM on p38α.
Turning to Cf-RRPPWLRLDIRR-NH 2 [compound 7], in the experiment on HEK-293T cells [1], the “internalization into HEK-293T cells” value was “time and concentration dependent internalization”.
As for “H-RRPPWLRLDI-NH2 [compound 5, H-RRPPWLRLDI-NH 2]”, the cellular uptake entry with HEK-293T cells [1] was “poor”.
Take “H-KKPPWLKLDI-NH2 [compound 4, H-KKPPWLKLDI-NH 2]”: the “binding decrease relative to the original peptide” value on ERK2 (ERK2 Kd, compared with original peptide 1) came out at 8.3 times. Moreover, the cellular uptake entry with HEK-293T cells [1] is reported as “poor”.
As to “H-RRRPPWLRLDIRR-NH2 [compound 8, H-RRRPPWLRLDIRR-NH 2]”, the EC50 at p38 (pp-p38α) is 1.3 µM; at active ERK2 (pp-ERK2), 3.5 µM. Besides, the Kd on p38α stood at 1.4 ± 0.3 µM.
As to `CC(C)C[C@@H]1NC(=O)[C@H](CCCNC(=N)N)NC(=O)[C@H](CC(C)C)NC(=O)[C@H](Cc2c[nH]c3ccccc23)NC(=O)[C@@H]2CCCN2C(=O)[C@@H]2CCCN2C(=O)[C@H](CCCNC(=N)N)NC(=O)[C@H](CCCNC(=N)N)NC(=O)[C@H](CCCNC(=N)N)NC(=O)[C@@H](NC(=O)c2ccc(N=Nc3ccc(N(C)C)cc3)cc2)CCCCNC(=O)CSC[C@@H](C(N)=O)NC(=O)[C@H](CCCNC(=N)N)NC(=O)[C@H](CCCNC(=N)N)NC(=O)[C@H](CC(=O)O)NC1=O` [compound 14] (Dabcyl-KRRRPPWLRLDRRC-NH2; linker 1-14 via X1), the equilibrium dissociation constant (Kd) on ERK2 came to 5.1 ± 0.4 µM; at p38α, 2.1 ± 0.6 µM.
